Measured values as given in patent US20080199606A1, “Composition for the Impregnation of Fibers, Fabrics and Nettings Imparting a Protective Activity Against Pests” (BASF Aktiengesellschaft, priority 2005, published 2008).

Tested on: mosquitoes
Assay: WHO cone test of treated, washed polyester nettings (knockdown, 24-hour mortality)
Assay type: in vivo
Conditions: polyester nettings treated with insecticide composition comprising a binder of example A and the N-arylhydrazine derivative; after Montpellier washing; 3 min cone exposure
Protocol: The long-lasting insecticidal treatment was performed with aqueous dispersions according to examples A1-A17 on commercially available white polyester netting material (fiber titer 75 denier, 156 mesh, weight 28-32 g/m^2) without prior washing. The aqueous treatment baths were prepared by mixing the aqueous dispersions with emulsions of N-ethyl-2,2-dimethylpropionamide-2-(2,6-dichloro-α,α,α-trifluoro-p-tolyl)-hydrazone and N-ethyl-2,2-dichloro-1-methylcyclo-propanecarboxamide-2-(2,6-dichloro-α,α,α-tri-fluoro-p-tolyl)hydrazone, respectively, setting pH with buffer solutions and adding a fixative (if needed). The concentrations of the treatment baths were adjusted according to the liquor uptake possible (LU between 60 and 100%). The treatment baths were applied by using a padder-stenter equipment on a laboratory scale (Mathis AG, Switzerland). The netting material is fully immersed into the treatment bath and excess liquor is removed by passing it through cylinders which move in counter-direction. By choosing a defined distance between these cylinders (and thus a defined pressure) the liquor uptake can be controlled. The liquor uptake is measured by weighing an impregnated piece of netting and subtracting the weight of the dry, untreated netting and is given as % weight of liquor on weight of netting. […]

| Compound | activity (knockdown, mortality) after washing of the nettings |
| --- | --- |
| CCN/C(=N\Nc1c(Cl)cc(C(F)(F)F)cc1Cl)C(C)(C)C [Ia-I, N-ethyl-2,2-dimethylpropionamide-2-(2,6-dichloro-α,α,α-trifluoro-p-tolyl)-hydrazone] | show an activity |
| CCN/C(=N\Nc1c(Cl)cc(C(F)(F)F)cc1Cl)C1(C)CC1(Cl)Cl (stereo not drawn) [Ia-II, N-Ethyl-2,2-dichloro-1-methylcyclo-propanecarboxamide-2-(2,6-dichloro-α,α,α-tri-fluoro-p-tolyl)hydrazone] | show an activity |
